Measurements: patent US20240246977A1, “DEGRADATION OF BRUTON'S TYROSINE KINASE (BTK) BY CONJUGATION OF BTK INHIBITORS WITH E3 LIGASE LIGAND AND METHOD OF USE” (BeiGene Switzerland GmbH, priority 2021, published 2024)
Read-outs that look alike come from different tables or passages of the source.

Legend:
HEK-293 cells = experiment: HEK-293 cytotoxicity detection (CellTiter-Glo); assay type: cell-based; conditions: 72 h incubation, CellTiter-Glo luminescence, read-out: HEK293
Method: HEK-293 cells were treated with compounds diluted in 0.2% DMSO, dilution was done according to the following protocol: (1) making 500× stock solution in DMSO from 5 mM by 4-fold dilution, total 8 doses were included; (2) making 2× solution in cell culture medium by transferring 0.5 ul 500× stock solution into 125 ul medium; (3) adding 50 ul of 2× solution to cells for incubation of 72 h.
25 μl of the CellTiter-Glo®Reagent [(Promega)—Cat No. G7572] was added to each well in the 96-well plate. The contents were mixed for 2 minutes on an orbital shaker to induce cell lysis. The plate was then allowed to incubate at room temperature for 10 minutes to stabilize luminescent signal. Luminescence was recorded on BMG PheraStar with luminescence protocol.
The inhibition percentage of the compound was calculated by the following equation: Inhibition percentage of Compound=100−100×(Signal-low control)/(High control-low control), wherein signal=each test compound group
High control=Cell group with added DMSO and without compound, indicating cells proliferation with no inhibition;
Imax is the maximum percentage of inhibition.
The IC50 value of a compound can be obtained by fitting the following equation
(§1) Wherein, X and Y are known values, and IC50, Hillslope, Top and Bottom are the parameters obtained by fitting with software. Y is the inhibition percentage (calculated from the equation), X is the concentration of the compound; IC50 is the concentration of the compound when the 50% inhibition is reached. The smaller the IC50 value is, the stronger the inhibitory ability of the compound is. Vice versa, the higher the IC50 value is, the weaker the ability the inhibitory ability of the compound is; Hillslope represents the slope of the fitted curve, generally around 1*; Bottom represents the minimum value of the curve obtained by data fitting, which is generally 0%±20%; Top represents the maximum value of the curve obtained by data fitting, which is generally 100%±20%. The experimental data were fitted by calculating and analyzing with Dotmatics data analysis software.

BTK = BTK (Homo sapiens, UniProt Q06187); experiment: BTK cell degradation in TMD-8 cells, HTRF assay; assay type: cell-based; set-up: endogenous in cells; host or cells: TMD-8 cells; conditions: 6 h treatment, IC50 (DC50) of BTK degradation
Chain of BTK (Q06187 whole entry): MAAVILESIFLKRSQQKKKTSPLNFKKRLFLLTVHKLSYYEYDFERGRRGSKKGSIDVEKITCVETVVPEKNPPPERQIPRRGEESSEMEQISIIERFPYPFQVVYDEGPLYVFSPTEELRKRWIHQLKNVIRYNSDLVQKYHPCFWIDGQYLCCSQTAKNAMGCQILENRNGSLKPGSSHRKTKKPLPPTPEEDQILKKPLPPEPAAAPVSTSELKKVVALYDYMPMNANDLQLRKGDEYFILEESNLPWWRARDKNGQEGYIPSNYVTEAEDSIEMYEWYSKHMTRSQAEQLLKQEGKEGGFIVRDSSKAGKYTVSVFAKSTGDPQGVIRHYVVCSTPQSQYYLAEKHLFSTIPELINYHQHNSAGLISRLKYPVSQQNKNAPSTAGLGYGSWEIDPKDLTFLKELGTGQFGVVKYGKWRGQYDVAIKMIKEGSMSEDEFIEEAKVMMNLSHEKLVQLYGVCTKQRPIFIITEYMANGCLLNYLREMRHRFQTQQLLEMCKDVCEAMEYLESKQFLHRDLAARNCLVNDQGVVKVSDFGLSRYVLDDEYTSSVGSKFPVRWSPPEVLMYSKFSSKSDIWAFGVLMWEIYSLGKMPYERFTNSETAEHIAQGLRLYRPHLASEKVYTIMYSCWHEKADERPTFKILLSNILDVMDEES
Method: TMD-8 cells were treated with compounds diluted in 0.2% DMSO, dilution was done according to the following protocol: (1) making 500× stock solution in DMSO from 1 mM by 6-fold dilution, total 8 doses were included; (2) making 2× solution in cell culture medium by transferring 0.5 μl 500× stock solution into 125 μl medium; (3) adding 15 μl of 2× solution to cells for incubation of 6 h.
After 6 h treatment, 10 μl 14×lysis buffer was added to each well; the plate was sealed and incubated for 30 min at room temperature on a plate shaker; Once the cells was lysed, 16 μL of cell lysate were transferred to a PE 384-well HTRF detection plate; 4 μL of pre-mixed HTRF antibodies were added to each well; the plate was covered with a plate sealer, and then spinned at 1000 rpm for 1 min, then incubated overnight at room temperature; the results were read on BMG PheraStar with HTRF protocol (337 nm-665 nm-620 nm).
The inhibition (degradation) percentage of the compound was calculated by the following equation: Inhibition percentage of Compound=100−100×(Signal-low control)/(High control-low control), wherein signal=each test compound group
High control=Cell group with added DMSO and without compound, indicating microplate readings without BTK degradation;
Dmax is the maximum percentage of inhibition (degradation).
The IC50 (DC50) value of a compound can be obtained by fitting the following equation
Y=Bottom+(TOP−Bottom)/(1+((IC50/X)^hillslope))
as §1, with “wherein,” for “Wherein,”

| SMILES | IC50 (HEK-293 cells) [nM] | DC50 (BTK) [nM] | IC50 (HEK-293 cells; Homo sapiens, 72 h) [nM] |
| --- | --- | --- | --- |
| Cc1cccc(NC(=O)c2ncc(-c3nn4c(c3C(N)=O)Nc3ccc(N5CCN(C6CC(c7ccc(C8CCC(=O)NC8=O)cc7)C6)CC5)cc3CC4)cc2C)n1 (stereo in doubt) [Example B35, (S)-7-(4-(3-(4-(2,6-dioxopiperidin-3-yl)phenyl)cyclobutyl)piperazin-1-yl)-2-(5-methyl-6-((6-methylpyridin-2-yl)carbamoyl)pyridin-3-yl)-9,10-dihydro-4H-benzo[d]pyrazolo[1,5-a][1,3]diazepine-3-carboxamide] | 97.4 | 10.6 | – |
| NC(=O)c1c(-c2ccc(Oc3ccccc3)cc2)nn2c1Nc1ccc(NC(=O)C3CCN(c4ccc5c(c4)C(=O)N(C4CCC(=O)NC4=O)C5=O)CC3)cc1CC2 (stereo not drawn) [Example A1, 7-(1-(2-(2,6-dioxopiperidin-3-yl)-1,3-dioxoisoindolin-5-yl)piperidine-4-carboxamido)-2-(4-phenoxyphenyl)-9,10-dihydro-4H-benzo[d]pyrazolo[1,5-a][1,3]diazepine-3-carboxamide] | – | 3 | 417 |
| NC(=O)c1c(-c2ccc(Oc3ccccc3)cc2)nn2c1Nc1ccc(NC(=O)COCCOCCOCCOCCNc3cccc4c3C(=O)N(C3CCC(=O)NC3=O)C4=O)cc1CC2 (stereo not drawn) [Example A2, 7-(14-((2-(2,6-dioxopiperidin-3-yl)-1,3-dioxoisoindolin-4-yl)amino)-3,6,9,12-tetraoxatetradecanamido)-2-(4-phenoxyphenyl)-9,10-dihydro-4H-benzo[d]pyrazolo[1,5-a][1,3]diazepine-3-carboxamide] | – | 1.85 | 557 |
| NC(=O)c1c(-c2ccc(Oc3ccccc3)cc2)nn2c1Nc1ccc(NCC3CCN(c4ccc5c(c4)C(=O)N(C4CCC(=O)NC4=O)C5=O)CC3)cc1CC2 (stereo not drawn) [Example A3, 7-(((1-(2-(2,6-dioxopiperidin-3-yl)-1,3-dioxoisoindolin-5-yl)piperidin-4-yl)methyl)amino)-2-(4-phenoxyphenyl)-9,10-dihydro-4H-benzo[d]pyrazolo[1,5-a][1,3]diazepine-3-carboxamide] | – | 20.6 | > 10000 |
| NC(=O)c1c(-c2ccc(Oc3ccccc3)cc2)nn2c1Nc1cc(N3CCN(CC4CCN(c5ccc6c(c5)C(=O)N(C5CCC(=O)NC5=O)C6=O)CC4)CC3)ccc1CC2 (stereo not drawn) [Example A15, 6-(4-((1-(2-(2,6-dioxopiperidin-3-yl)-1,3-dioxoisoindolin-5-yl)piperidin-4-yl)methyl)piperazin-1-yl)-2-(4-phenoxyphenyl)-9,10-dihydro-4H-benzo[d]pyrazolo[1,5-a][1,3]diazepine-3-carboxamide] | – | 27.9 | – |
| NC(=O)c1c(-c2ccc(Oc3ccccc3)cc2)nn2c1Nc1ccc(NCC3CCN(c4cc5c(cc4F)C(=O)N(C4CCC(=O)NC4=O)C5=O)CC3)cc1CC2 (stereo not drawn) [Example A16, 7-(((1-(2-(2,6-dioxopiperidin-3-yl)-6-fluoro-1,3-dioxoisoindolin-5-yl)piperidin-4-yl)methyl)amino)-2-(4-phenoxyphenyl)-9,10-dihydro-4H-benzo[d]pyrazolo[1,5-a][1,3]diazepine-3-carboxamide] | – | 9.71 | – |
| NC(=O)c1c(-c2ccc(Oc3ccccc3)cc2)nn2c1Nc1cc(C(=O)NC3CCN(CC4CCN(c5cc6c(cc5F)C(=O)N(C5CCC(=O)NC5=O)C6=O)CC4)CC3)ccc1CC2 (stereo not drawn) [Example A17, N^6-(1-((1-(2-(2,6-dioxopiperidin-3-yl)-6-fluoro-1,3-dioxoisoindolin-5-yl)piperidin-4-yl)methyl)piperidin-4-yl)-2-(4-phenoxyphenyl)-9,10-dihydro-4H-benzo[d]pyrazolo[1,5-a][1,3]diazepine-3,6-dicarboxamide] | – | 14.4 | – |
| NC(=O)c1c(-c2ccc(Oc3ccccc3)cc2)nn2c1Nc1cc(C(=O)N3CCN(CC4CCN(c5ccc6c(c5)C(=O)N(C5CCC(=O)NC5=O)C6=O)CC4)CC3)ccc1CC2 (stereo not drawn) [Example A19, 6-(4-((1-(2-(2,6-dioxopiperidin-3-yl)-1,3-dioxoisoindolin-5-yl)piperidin-4-yl)methyl)piperazine-1-carbonyl)-2-(4-phenoxyphenyl)-9,10-dihydro-4H-benzo[d]pyrazolo[1,5-a][1,3]diazepine-3-carboxamide] | – | 17.9 | – |
| NC(=O)c1c(-c2ccc(Oc3ccccc3)cc2)nn2c1Nc1ccc(N3CCN(CCC4CCN(c5ccc(N6CCC(=O)NC6=O)cc5)CC4)CC3)cc1CC2 [Example A22, 7-(4-(2-(1-(4-(2,4-dioxotetrahydropyrimidin-1(2H)-yl)phenyl)piperidin-4-yl)ethyl)piperazin-1-yl)-2-(4-phenoxyphenyl)-9,10-dihydro-4H-benzo[d]pyrazolo[1,5-a][1,3]diazepine-3-carboxamide] | – | 1.31 | – |
| CC(C)(C)c1ccc(Oc2ccc(-c3nn4c(c3C(N)=O)Nc3ccc(C5CCN(CCC6CCN(c7ccc(N8CCC(=O)NC8=O)cc7)CC6)CC5)cc3CC4)cc2)cc1 [Example A29, 2-(4-(4-(tert-butyl)phenoxy)phenyl)-7-(1-(2-(1-(4-(2,4-dioxotetrahydropyrimidin-1(2H)-yl)phenyl)piperidin-4-yl)ethyl)piperidin-4-yl)-9,10-dihydro-4H-benzo[d]pyrazolo[1,5-a][1,3]diazepine-3-carboxamide] | – | 16.3 | – |
| Cc1cccc(NC(=O)c2ccc(-c3nn4c(c3C(N)=O)Nc3ccc(N5CCN(CC6CCN(c7ccc(CN8CCC(=O)NC8=O)cc7)CC6)CC5)cc3CC4)c(F)c2C)n1 [Example B69, 7-(4-((1-(4-((2,4-dioxotetrahydropyrimidin-1(2H)-yl)methyl)phenyl)piperidin-4-yl)methyl)piperazin-1-yl)-2-(2-fluoro-3-methyl-4-((6-methylpyridin-2-yl)carbamoyl)phenyl)-9,10-dihydro-4H-benzo[d]pyrazolo[1,5-a][1,3]diazepine-3-carboxamide] | – | 8.05 | – |
| Cc1cccc(NC(=O)c2ccc(-c3nn4c(c3C(N)=O)Nc3ccc(N5CCN(CC6CCN(c7cccc(CN8CCC(=O)NC8=O)c7)CC6)CC5)cc3CC4)c(F)c2C)n1 [Example B70, 7-(4-((1-(3-((2,4-dioxotetrahydropyrimidin-1(2H)-yl)methyl)phenyl)piperidin-4-yl)methyl)piperazin-1-yl)-2-(2-fluoro-3-methyl-4-((6-methylpyridin-2-yl)carbamoyl)phenyl)-9,10-dihydro-4H-benzo[d]pyrazolo[1,5-a][1,3]diazepine-3-carboxamide] | – | 8.66 | – |
| Cc1c(C(=O)Nc2cn(C)cn2)ccc(-c2nn3c(c2C(N)=O)Nc2ccc(N4CCN(CCc5cc(F)c([C@H]6CCC(=O)NC6=O)c(F)c5)CC4)cc2CC3)c1F [Example B89, (R)-7-(4-(4-(2,6-dioxopiperidin-3-yl)-3,5-difluorophenethyl)piperazin-1-yl)-2-(2-fluoro-3-methyl-4-((1-methyl-1H-imidazol-4-yl)carbamoyl)phenyl)-9,10-dihydro-4H-benzo[d]pyrazolo[1,5-a][1,3]diazepine-3-carboxamide] | – | – | > 10000 |
| Cc1c(C(=O)Nc2cscn2)ccc(-c2nn3c(c2C(N)=O)Nc2ccc(N4CCN(CCc5cc(F)c([C@H]6CCC(=O)NC6=O)c(F)c5)CC4)cc2CC3)c1F [Example B95, (R)-7-(4-(4-(2,6-dioxopiperidin-3-yl)-3,5-difluorophenethyl)piperazin-1-yl)-2-(2-fluoro-3-methyl-4-(thiazol-4-ylcarbamoyl)phenyl)-9,10-dihydro-4H-benzo[d]pyrazolo[1,5-a] [1,3]diazepine-3-carboxamide] | – | 1.7 | – |
